Experimental data as given in ChEMBL document CHEMBL4190267, “Discovery of potent molecular chimera (CM358) to treat human metastatic melanoma” (Eur J Med Chem, 2017).
The source made the active and inactive calls. No cut-off for these calls is given here.

Experiments:
NCI-H1299 [1] = test: Growth inhibition of human NCI-H1299 cells preincubated for 6 hrs followed compound washout measured after 24 hrs by XTT assay; assay type: functional
PC-3 [2] = test: Growth inhibition of human PC3 cells preincubated for 6 hrs followed compound washout measured after 24 hrs by XTT assay; assay type: functional
WM 266-4 [3] = test: Growth inhibition of human WM266.4 cells preincubated for 6 hrs followed compound washout measured after 24 hrs by XTT assay; assay type: functional
A 172 [4] = test: Growth inhibition of human A172 cells preincubated for 6 hrs followed compound washout measured after 24 hrs by XTT assay; assay type: functional
MDA-MB-231 [5] = test: Growth inhibition of human MDA-MB-231 cells preincubated for 6 hrs followed compound washout measured after 24 hrs by XTT assay; assay type: functional
MDA-MB-231 [6] = test: Growth inhibition of human MDA-MB-231 cells up to 25 uM cotreated with colchicine measured after 24 hrs by XTT assay; assay type: functional, cell-based
WM 266-4 [7] = test: Growth inhibition of human WM266.4 cells up to 25 uM cotreated with colchicine measured after 24 hrs by XTT assay; assay type: functional, cell-based
NCI-H1299 [8] = test: Growth inhibition of human NCI-H1299 cells up to 25 uM cotreated with colchicine measured after 24 hrs by XTT assay; assay type: functional, cell-based
PC-3 [9] = test: Growth inhibition of human PC3 cells up to 25 uM cotreated with colchicine measured after 24 hrs by XTT assay; assay type: functional, cell-based
A 172 [10] = test: Growth inhibition of human A172 cells up to 25 uM cotreated with colchicine measured after 24 hrs by XTT assay; assay type: functional, cell-based
WM 266-4 [11] = test: Cell cycle arrest in human WM266.4 cells assessed as accumulation at G2 phase at 10 uM cotreated with amonafide after 8 hrs by propidium iodide staining based flow cytometry (reference value: 11%); assay type: functional
Mus musculus [12] = test: Toxicity in athymic Foxn1 nu mouse xenografted with human WM266.4 cells assessed as body weight loss at 10 mg/kg, ip cotreated with amonafide administered once daily for 3 days followed by resting period of 4 days repeated for 4 weeks starting from 5 days post tumor inoculation; assay type: organism-based; details: in vivo
WM 266-4 [13] = test: Cell cycle arrest in human WM266.4 cells assessed as accumulation at S phase at 10 uM cotreated with amonafide after 24 hrs by propidium iodide staining based flow cytometry (reference value: 27%); assay type: functional
PC-3 [14] = test: Growth inhibition of human PC3 cells preincubated for 6 hrs cotreated with amonafide followed compound washout measured after 24 hrs by XTT assay; assay type: functional
NCI-H1299 [15] = test: Growth inhibition of human NCI-H1299 cells preincubated for 6 hrs cotreated with amonafide followed compound washout measured after 24 hrs by XTT assay; assay type: functional
WM 266-4 [16] = test: Cell cycle arrest in human WM266.4 cells assessed as accumulation at G1 phase at 10 uM cotreated with amonafide after 24 hrs by propidium iodide staining based flow cytometry (reference value: 59%); assay type: functional
MDA-MB-231 [17] = test: Growth inhibition of human MDA-MB-231 cells preincubated for 6 hrs cotreated with amonafide followed compound washout measured after 24 hrs by XTT assay; assay type: functional
WM 266-4 [18] = test: Antitumor activity against human WM266.4 cells xenografted in athymic Foxn1 nu mouse assessed as tumor growth inhibition at 10 mg/kg, ip cotreated with amonafide administered once daily for 3 days followed by resting period of 4 days repeated for 4 weeks starting from 5 days post tumor inoculation; assay type: functional, organism-based
WM 266-4 [19] = test: Cell cycle arrest in human WM266.4 cells assessed as accumulation at S phase at 10 uM cotreated with amonafide after 8 hrs by propidium iodide staining based flow cytometry (reference value: 27%); assay type: functional
WM 266-4 [20] = test: Growth inhibition of human WM266.4 cells preincubated for 6 hrs cotreated with amonafide followed compound washout measured after 24 hrs by XTT assay; assay type: functional
WM 266-4 [21] = test: Cell cycle arrest in human WM266.4 cells assessed as accumulation at G1 phase at 10 uM cotreated with amonafide after 8 hrs by propidium iodide staining based flow cytometry (reference value: 59%); assay type: functional
WM 266-4 [22] = test: Antitumor activity against human WM266.4 cells xenografted in athymic Foxn1 nu mouse assessed as tumor growth inhibition at 10 mg/kg, ip cotreated with amonafide administered once daily for 7 days followed by resting period of 2 days repeated for 4 weeks starting from 5 days post tumor inoculation; assay type: functional, organism-based
A 172 [23] = test: Growth inhibition of human A172 cells preincubated for 6 hrs cotreated with amonafide followed compound washout measured after 24 hrs by XTT assay; assay type: functional
WM 266-4 [24] = test: Cell cycle arrest in human WM266.4 cells assessed as accumulation at G2 phase at 10 uM cotreated with amonafide after 2 hrs by propidium iodide staining based flow cytometry (reference value: 11%); assay type: functional
WM 266-4 [25] = test: Cell cycle arrest in human WM266.4 cells assessed as accumulation at G2 phase at 10 uM cotreated with amonafide after 24 hrs by propidium iodide staining based flow cytometry (reference value: 11%); assay type: functional
Mus musculus [26] = test: Toxicity in athymic Foxn1 nu mouse xenografted with human WM266.4 cells assessed as body weight loss at 10 mg/kg, ip cotreated with amonafide administered once daily for 7 days followed by resting period of 2 days repeated for 4 weeks starting from 5 days post tumor inoculation; assay type: organism-based; details: in vivo
WM 266-4 [27] = test: Cell cycle arrest in human WM266.4 cells assessed as accumulation at S phase at 10 uM cotreated with amonafide after 2 hrs by propidium iodide staining based flow cytometry (reference value: 27%); assay type: functional
WM 266-4 [28] = test: Cell cycle arrest in human WM266.4 cells assessed as accumulation at G1 phase at 10 uM cotreated with amonafide after 2 hrs by propidium iodide staining based flow cytometry (reference value: 59%); assay type: functional

## O=C(CCCc1ccc(N(CCCl)CCCl)cc1)Nc1ccn([C@@H]2O[C@H](CO)[C@@H](O)[C@@H]2O)c(=O)n1
NCI-H1299 [1]
  growth inhibition (GI): inactive
PC-3 [2]
  growth inhibition (GI): inactive
WM 266-4 [3]
  growth inhibition (GI): inactive
A 172 [4]
  growth inhibition (GI): inactive
MDA-MB-231 [5]
  growth inhibition (GI): inactive

## Nc1ccn([C@@H]2O[C@H](COC(=O)CCCc3ccc(N(CCCl)CCCl)cc3)[C@@H](O)[C@@H]2O)c(=O)n1
NCI-H1299 [1]
  growth inhibition (GI): inactive
PC-3 [2]
  growth inhibition (GI): inactive
WM 266-4 [3]
  growth inhibition (GI): inactive
A 172 [4]
  growth inhibition (GI): inactive
MDA-MB-231 [5]
  growth inhibition (GI): inactive

## CC[C@@]1(O)C(=O)OCc2c1cc1n(c2=O)Cc2cc3ccccc3nc2-1
MDA-MB-231 [6]
  growth inhibition (GI): Active
WM 266-4 [7]
  growth inhibition (GI): Active
NCI-H1299 [8]
  growth inhibition (GI): Active
PC-3 [9]
  growth inhibition (GI): Active
A 172 [10]
  growth inhibition (GI): Active

## O=C(O)CCCc1ccc(N(CCCl)CCCl)cc1 [CHLORAMBUCIL]
WM 266-4 [11]
  Activity: 23%
NCI-H1299 [1]
  GI50: > 25 µM
Mus musculus [12]
  Activity: Toxic
WM 266-4 [13]
  Activity: 39%
PC-3 [14]
  GI50: > 25 µM
PC-3 [2]
  GI50: > 25 µM
NCI-H1299 [15]
  GI50: > 25 µM
WM 266-4 [3]
  GI50: > 25 µM
WM 266-4 [16]
  Activity: 35%
MDA-MB-231 [17]
  GI50: > 25 µM
WM 266-4 [18]
  TGI: inactive
WM 266-4 [19]
  Activity: 44.7%
WM 266-4 [20]
  GI50: > 25 µM
WM 266-4 [21]
  Activity: 29%
WM 266-4 [22]
  TGI: inactive
A 172 [23]
  GI50: > 25 µM
A 172 [4]
  GI50: > 25 µM
MDA-MB-231 [5]
  GI50: > 25 µM
WM 266-4 [24]
  Activity: 9.8%
WM 266-4 [25]
  Activity: 26%
Mus musculus [26]
  Activity: Toxic
WM 266-4 [27]
  Activity: 26%
WM 266-4 [28]
  Activity: 63.5%
